row,SMILES,melting point [°C]
1,Cc1noc(NS(=O)(=O)c2ccccc2-c2ccc(-c3ncccn3)cc2CN2CCC(C)(C)C2=O)c1C,105 to 115
2,CCOP(=O)(Cc1ccc(C(=O)O)cc1)OCC,117 to 120
3,CCOC(=O)C(=NNc1ccccc1)C(C)=O,75 to 76
4,CC(C)n1c(C=O)c(-c2ccc(F)cc2)c(-c2ccccc2)c1C(=O)Nc1ccccc1,222 to 224
5,CC(C)(C)c1ccc(O[C@@H]2CCNC[C@H]2O)cc1 (relative stereo),138 to 140
6,COC(=O)C=Cc1ccc(Br)cc1,80
7,O=C(NCc1ccc(Cl)cc1)c1cnc2c(F)cc(CCCCCO)cc2c1O,193 to 195
8,N#Cc1ccc(CC23CCNN2C(=O)N(c2cc(Cl)nc(Cl)c2)C3=O)cc1 (stereo not given),187
9,CCCn1c(N)c(NC(=O)C2(NC(=O)C(F)(F)F)CCCC2)c(=O)n(CCC)c1=O,203 to 204
10,Cc1c(O)cccc1C(=O)N[C@@H](Cc1ccccc1)[C@H](O)C(=O)N1CSC(C)(C)[C@H]1C(=O)N[C@H]1CCSc2ccccc21,125 to 127
11,CCOC(=O)CCCCC(=O)OCC1=C(C(=O)OCC)C(c2ccccc2Cl)C(C(=O)OCC)=C(C)N1 (stereo not given),91 to 92
12,CCOC(=O)CN1CCc2c(sc(N)c2C(=O)c2ccccc2)C1,115 to 117
13,CCCCNc1c(C(=O)OCC)c(C)nc(NCC)c1[N+](=O)[O-],53 to 55
14,Cc1c(C)c2c(c(C)c1NC(=O)CC(C)(C)C)C(c1ccc(-c3ccccc3)cc1)CO2 (stereo not given),218 to 219
15,CC(Oc1ccc([N+](=O)[O-])cc1F)c1c(Cl)ccc(F)c1Cl (stereo not given),110
16,Cc1cc(-c2ccc(C(F)(F)F)cn2)nc(-c2cccc(-c3cccc(S(N)(=O)=O)c3)n2)n1,246 to 252
17,O=S(=O)(c1ccc(Cl)cc1)C(c1ccncc1)C1CCOCC1 (stereo not given),208 to 209
18,O=c1n(CCCC2CCCC2)ccn1-c1ccc([N+](=O)[O-])cc1,105 to 107
19,Nc1c([N+](=O)[O-])cnn1-c1ncc(Cl)cc1Cl,194
20,O=C(C[C@@H]1COCCO1)N[C@H]1CC[C@H](CCN2CCC(c3cccc4c3CCO4)CC2)CC1,190
21,[N-]=[N+]=C1CCCCCCCCCCC1=O,43 to 44
22,C=CCC(O)c1c(-c2ccc(F)cc2)nc(N(C)S(C)(=O)=O)nc1C(C)C (stereo not given),126
23,COc1cc2c(c(OC)c1OC)-c1cc3c(cc1COC2)OCO3,154 to 156
24,CCCCCCCCCCCCN(CCCCCCCCCCCC)C(=O)c1c(C)cc(C)c(C)c1O,56

row,SMILES,melting point [°C]
1,NS(=O)(=O)c1cccc(NC(=O)c2cnn3c(C(F)(F)F)cc(-c4ccc(C(F)(F)F)cc4)nc23)c1,155
2,CCC(NC(=O)Cc1ccccc1)C(=NNC(N)=S)c1ccccc1 (stereo not given),121 to 124
3,CS(=O)(=O)c1c(C(=O)O)ccc(F)c1F,194
4,O=C(C=Cc1ccc(-c2ccc3ncnc(Nc4ccc(OCc5cccc(F)c5)c(Cl)c4)c3c2)o1)NOC1CCCCO1 (stereo not given),233
5,COCC1CN(c2ccc3ccc(OC)cc3c2)C(=O)O1 (stereo not given),95.5 to 96.5
6,O=C(Nc1c(C(O)(C(F)(F)F)C(F)(F)F)ccc2ccccc12)c1ccc(Cl)cc1,175 to 176
7,CCc1ncnc(NC(CO)CO)c1Cl,104 to 105
8,Cc1cc(-c2ccc(C(F)(F)F)nc2)nc(-c2ccnc(-c3ccc(S(N)(=O)=O)s3)c2)n1,289
9,CN1CCC(Oc2cc3c(cc2F)c(=O)c(C(=O)O)cn3C2CC2)CC1,265 to 269
10,COc1ccc2c(c1)C(=O)N(c1ccc(C(C)C)cn1)C2,109 to 110
11,CCC(C)(COc1nn2ncnc2cc1C)CS(N)(=O)=O (stereo not given),189 to 190
12,CC1(C)OC(C=Cc2ccccn2)=CC1=O,87.5 to 89
13,CCOC(=O)C1=C(N)NC2=C(C(=O)CCC2)C1C (stereo not given),236
14,COC(=O)Cc1c(Br)csc1Br,38.5 to 39
15,Cc1cc(OCc2nc3ccccc3s2)ccc1N,110 to 111
16,COc1cccc2c1nc(C)n2C,122 to 124
17,CS(=O)(=O)Nc1ccc(CNC(=O)c2cccnc2Oc2ccc(F)cc2)cc1,107 to 109
18,CC(=O)NC[C@H]1CN(c2ccc(C3CCN(C(=O)c4cc5ccccc5[nH]4)CC3)c(F)c2)C(=O)O1,223 to 225
19,CC(CN(C)C)Oc1ccccc1CC(=O)N1CC2C(C1)C(c1ccccc1)(c1ccccc1)CCS2=O (racemic),150
20,COc1cc(OC)c(N2CCCC2)cc1/C=C/C(=O)c1ccc(S(=O)(=O)NCc2ccccn2)cc1,112 to 116
21,Fc1ccc2[nH]nc(-c3ccccc3)c2c1,124 to 125
22,COc1cc2ccccc2cc1C(=O)NNC(=O)c1cc2ccccc2cc1OC,260 to 263
23,COc1cc2c(cc1Nc1ncc(F)c(Nc3ccc(N4CCOCC4)cc3OC)n1)CCN(CC(=O)OC(C)C)CC2,94 to 110
24,COc1cc(C=O)ccc1NC(=O)OCC1c2ccccc2-c2ccccc21,150 to 152

row,SMILES,melting point [°C]
1,COc1ccc(NC(C)=O)cc1OCCCN1CCC(c2nsc3cc(F)ccc23)CC1,109 to 111
2,COc1ccc(CC2CCC3=C(C2)CC(C)C(=O)N3)cc1 (stereo not given),182 to 184
3,O=Cc1ccc2cc3c(cc2c1)sc1ccccc13,182 to 185
4,COCCOCCOCCC1(CCOCCOCCOC)c2cc(C#Cc3ccc(C=O)s3)ccc2-c2ccc(C#Cc3ccc(C=O)s3)cc21,84
5,Cc1nc(C#CCCc2nc3ccccc3o2)cn1C,117 to 119
6,OCc1cc(Cl)cc(CO)c1O,161 to 163
7,CC(C)n1c(=O)nc(-c2ccccc2)c2ccc(CO)cc21,223 to 225
8,O=C1CCC=C1c1ccc(Cl)cc1,71 to 72
9,COC1(OC)C(NC(=O)c2ccccc2O)=CC(=O)C2OC21 (stereo not given),147 to 149
10,CCCCc1ccc(C(=O)SCC2C(=O)OCC2c2ccccc2)cc1 (stereo not given),91 to 93
11,CCn1c(=O)n(C)c(=O)c2c(C(=O)N3C[C@](C)(O)CO3)c(Cn3c(C)nc(Cl)c3Cl)sc21,130 to 133
12,O=C(O)CCC(O)c1ccc(-c2ccccc2)c(Cl)c1 (stereo not given),87 to 88
13,C/C=C(/COC(=O)CNC(=O)C(F)(F)F)c1ccccc1,49 to 50
14,Oc1cc2c3ccc(O)c(O)c3n(Cc3ccc(Br)cc3)c2cc1O,249 to 252
15,CN(CCOc1ccc(CON=C(C(=O)O)c2ccccc2)cc1)c1ccccn1,93 to 94
16,COc1ccc(NC(=O)NCc2ccc3c(c2)CN(C2CCC(=O)NC2=O)C3=O)cc1OC (stereo not given),216 to 218
17,O=C(Oc1ccc2cc(CN3CCCC3)ccc2c1)N1CCC(c2ccc(F)cc2)CC1,106 to 108
18,COc1ccc(Cn2c(=O)c(NN)nc3ccc4ccccc4c32)c(OC)c1,182 to 183
19,O=C(O)c1ccc2oc(-c3ccccc3)cc(=O)c2c1,281 to 283
20,CC12CCC3c4ccc(C(=O)O)cc4CCC3C1CCC2C(=O)c1cc(F)cc(F)c1 (stereo not given),258 to 261
21,C/C=C(\C(=O)N(CC)CC)c1cc(OC)c(O)c2c(Cc3ccccc3)cccc12,86 to 87
22,O=c1cc2c(n[nH]1)-c1ccccc1SCC2,311 to 313
